From US20250257061A1, “COMPOSITIONS AND METHODS FOR TREATING CANCER AND REDUCING WNT MEDIATED EFFECTS” (StemSynergy Therapeutics, Inc., priority 2024, published 2025)
Read-outs that look alike come from different tables or passages of the source. Blank lines part the entries; values can stand above or below the compound they belong to.

Experiments:
[1] = tested on: Wnt-dependent HCT116 cell line; assay: Viability assay using Wnt-dependent HCT116 cell line (Cell Titer Glo); type: cell-based
Protocol: All compounds were tested using the human cell line HEK STF293. This cell line carries a Wnt reporter (TCF/LEF1 promoter), which drives expression of the firefly luciferase protein. The level of Wnt activity is directly correlated with the level of luciferase activity (determined using a simple assay). Compounds that inhibit Wnt signaling by reducing luciferase activity in these two cell lines are further tested biochemically. […] Compounds were further tested in a Viability assay using Wnt-dependent HCT116 cell line. HEK293 cells were seeded in a 6-well plate at approximately 8.0×10^5 cells (2 mL per well). On the first day, Wnt3a-conditioned media (1:1) and compounds (1:100) were added to the plated cells. The final concentrations of compounds were 1 μM, 500 nM, and 100 nM. Vehicle (DMSO) and a Wnt3a-conditioned media plus Vehicle samples were also prepared as controls. Lysates were collected (with non-denaturing lysis buffer) after 24 hours incubation, and protein concentrations determined by Bradford Assay. Immunoblotting with an anti-beta-catenin antibody (equivalent amounts of protein/lane for each condition) were subsequently performed to determine beta-catenin levels. HCT116 cells were seeded at 2,500 cells/well in a 96-well dish (Volume: 100 μL/well). On the second day, the 10 mM stock solution of each test compound was thawed at room temperature. Dilutions of the test compound were prepared in DMSO in a V-bottom 96-well plate. The stock compound solution, DMSO-diluted compound solutions, and DMSO were further diluted 500-fold in cell culture media, and 100 μL of the compound- or DMSO-containing cell culture media was added to each well of the cells. […] The final DMSO concentration was 0.1% in all wells. On the fifth day, 150 μL of media was removed from each well. 50 μL/well Cell Titer Glo reagent (Promega) was added to each well. The plate was shaken at 130 rpm for 15 minutes at room temperature, and the cell viability was determined using a luminescence plate reader. All compounds were tested using the human cell line HEK STF293. This cell line carries a Wnt reporter (TCF/LEF1 promoter), which drives expression of the firefly luciferase protein. The level of Wnt activity is directly correlated with the level of luciferase activity (determined using a simple assay). Compounds that inhibit Wnt signaling by reducing luciferase activity in these two cell lines are further tested biochemically. […] Compounds were further tested in a Viability assay using Wnt-dependent HCT116 cell line. HEK293 cells were seeded in a 6-well plate at approximately 8.0×10^5 cells (2 mL per well). On the first day, Wnt3a-conditioned media (1:1) and compounds (1:100) were added to the plated cells. The final concentrations of compounds were 1 μM, 500 nM, and 100 nM. Vehicle (DMSO) and a Wnt3a-conditioned media plus Vehicle samples were also prepared as controls. Lysates were collected (with non-denaturing lysis buffer) after 24 hours incubation, and protein concentrations determined by Bradford Assay. Immunoblotting with an anti-beta-catenin antibody (equivalent amounts of protein/lane for each condition) were subsequently performed to determine beta-catenin levels. HCT116 cells were seeded at 2,500 cells/well in a 96-well dish (Volume: 100 μL/well). On the second day, the 10 mM stock solution of each test compound was thawed at room temperature. Dilutions of the test compound were prepared in DMSO in a V-bottom 96-well plate. The stock compound solution, DMSO-diluted compound solutions, and DMSO were further diluted 500-fold in cell culture media, and 100 μL of the compound- or DMSO-containing cell culture media was added to each well of the cells. […] The final DMSO concentration was 0.1% in all wells. On the fifth day, 150 μL of media was removed from each well. 50 μL/well Cell Titer Glo reagent (Promega) was added to each well. The plate was shaken at 130 rpm for 15 minutes at room temperature, and the cell viability was determined using a luminescence plate reader. […]

[2] = tested on: Wnt reporter (TCF/LEF1 promoter); assay: HEK STF293 Wnt reporter (TOPFlash) luciferase assay, Steady Glo normalised to Cell Titer; type: cell-based, human
Protocol: All compounds were tested using the human cell line HEK STF293. This cell line carries a Wnt reporter (TCF/LEF1 promoter), which drives expression of the firefly luciferase protein. The level of Wnt activity is directly correlated with the level of luciferase activity (determined using a simple assay). Compounds that inhibit Wnt signaling by reducing luciferase activity in these two cell lines are further tested biochemically. […] Compounds were further tested in a Viability assay using Wnt-dependent HCT116 cell line. Compounds were prepared as 10 mM stocks for each compound in DMSO. Dilutions were prepared in a 96-well plate in DMSO. The stock dilutions are as follows: 10 mM, 1 mM, 100 μM, 10 μM, 100 nM, and 10 nM. Plates were sealed and stored at −20° C. […] On the first day, Wnt3a-conditioned media (1:1) were added along with diluted compounds (1:100). […] The final concentrations should therefore be 100 μM, 10 μM, 1 μM, 100 nM, 10 nM, and 1 nM. On the second day, the media was removed and 75 μL of Passive Lysis Buffer (Promega) is added to each well. The plate was shaken at 130 rpm for 15 minutes. For the Steady Glo assay, 45 μL of the lysis was removed and added to a white 96-well plate containing 45 μL/well of Steady Glo solution (Promega). For the Cell Titer assay, 25 μL of the lysis was transferred to a white 96-well plate containing 25 μL/well of Cell Titer solution (Promega). Both Steady Glo and Cell Titer assays were read with a luminescence plate reader. When determining EC50, the Steady Glo values were divided by the Cell Titer values to normalize for cell number. All compounds were tested using the human cell line HEK STF293. This cell line carries a Wnt reporter (TCF/LEF1 promoter), which drives expression of the firefly luciferase protein. The level of Wnt activity is directly correlated with the level of luciferase activity (determined using a simple assay). Compounds that inhibit Wnt signaling by reducing luciferase activity in these two cell lines are further tested biochemically. […] Compounds were further tested in a Viability assay using Wnt-dependent HCT116 cell line. Compounds were prepared as 10 mM stocks for each compound in DMSO. Dilutions were prepared in a 96-well plate in DMSO. The stock dilutions are as follows: 10 mM, 1 mM, 100 μM, 10 μM, 100 nM, and 10 nM. Plates were sealed and stored at −20° C. […] On the first day, Wnt3a-conditioned media (1:1) were added along with diluted compounds (1:100). […] The final concentrations should therefore be 100 μM, 10 μM, 1 μM, 100 nM, 10 nM, and 1 nM. On the second day, the media was removed and 75 μL of Passive Lysis Buffer (Promega) is added to each well. The plate was shaken at 130 rpm for 15 minutes. For the Steady Glo assay, 45 μL of the lysis was removed and added to a white 96-well plate containing 45 μL/well of Steady Glo solution (Promega). For the Cell Titer assay, 25 μL of the lysis was transferred to a white 96-well plate containing 25 μL/well of Cell Titer solution (Promega). Both Steady Glo and Cell Titer assays were read with a luminescence plate reader. When determining EC50, the Steady Glo values were divided by the Cell Titer values to normalize for cell number. All compounds were tested using the human cell line HEK STF293. This cell line carries a Wnt reporter (TCF/LEF1 promoter), which drives expression of the firefly luciferase protein. The level of Wnt activity is directly correlated with the level of luciferase activity (determined using a simple assay). Compounds that inhibit Wnt signaling by reducing luciferase activity in these two cell lines are further tested biochemically. […] Compounds were further tested in a Viability assay using Wnt-dependent HCT116 cell line. Compounds were prepared as 10 mM stocks for each compound in DMSO. Dilutions were prepared in a 96-well plate in DMSO. The stock dilutions are as follows: 10 mM, 1 mM, 100 μM, 10 μM, 100 nM, and 10 nM. Plates were sealed and stored at −20° C. […]

[3] = Homo sapiens, HCT-116, Examples for Formulae (I), (II), and (III), HCT116 cells, read-out: Viability IC50 category
[4] = Homo sapiens, STF/293, Examples for Formulae (I), (II), and (III), HEK STF293 cells, Wnt3a-conditioned media, read-out: TOPFlash IC50 category
[5] = Homo sapiens, HCT-116, read-out: Viability IC50 category
[6] = Homo sapiens, STF/293, read-out: TOPFlash IC50 category
[7] = Homo sapiens, HCT-116, Examples for Formulae (VIII), (IX), and (X), HCT116 cells, read-out: Viability IC50 category
[8] = Homo sapiens, STF/293, Examples for Formulae (VIII), (IX), and (X), HEK STF293 cells, Wnt3a-conditioned media, read-out: TOPFlash IC50 category
[9] = Homo sapiens, HCT-116, Examples for Formulae (IV), (V), (VI), and (VII), HCT116 cells, read-out: Viability IC50 category
[10] = Homo sapiens, STF/293, Examples for Formulae (IV), (V), (VI), and (VII), HEK STF293 cells, Wnt3a-conditioned media, read-out: TOPFlash IC50 category
[11] = Examples for Formulae (IV), (V), (VI), and (VII), HCT116 cells, read-out: Viability IC50 category
[12] = Examples for Formulae (IV), (V), (VI), and (VII), HEK STF293 cells, Wnt3a-conditioned media, read-out: TOPFlash IC50 category

IC50 [1, 3]: 1000 to 10000 nM
SMILES: Cc1c(C(=O)Nc2nc(-c3ccccn3)cs2)cnn1Cc1ccccc1 [Example 1]
IC50 [2, 4]: 1000 to 10000 nM

SMILES: COc1ccccc1-c1noc(C)c1C(=O)Nc1nc(-c2ccccn2)cs1 [Example 21]
IC50 [1, 5]: 1000 to 10000 nM | IC50 [2, 6]: 1000 to 10000 nM

IC50 [1, 7]: 1000 to 10000 nM
SMILES: O=C(Nc1nc(-c2ccccn2)cs1)c1ccn(Cc2ccc(F)cc2)c(=O)c1 [Example 9]
IC50 [2, 8]: 1000 to 10000 nM

IC50 [1, 9]: 200 to 500 nM
SMILES: Cc1onc(-c2cccc(F)c2F)c1C(=O)Nc1nc(-c2ccccn2)cs1 [Example 19]
IC50 [2, 10]: 200 to 500 nM

IC50 [1, 7]: 500 to 1000 nM
SMILES: O=C(Nc1nc(-c2ccccn2)cs1)c1cccnc1Oc1ccc(C(F)(F)F)cc1 [Example 13]
IC50 [2, 8]: 200 to 500 nM

IC50 [1, 11]: 500 to 1000 nM
SMILES: Cc1nc(N(C)C(=O)c2ccccc2Cl)oc1C(=O)Nc1nc(-c2ccccn2)cs1 [Example 77]
IC50 [2, 12]: 200 to 500 nM

IC50 [1, 3]: 200 to 500 nM
SMILES: O=C(Nc1nc(-c2ccccn2)cs1)c1cn(-c2ccccc2)nc1-c1ccccc1 [Example 14]
IC50 [2, 4]: < 200 nM

IC50 [1, 11]: 200 to 500 nM
SMILES: Cc1nc(N(C)S(=O)(=O)c2ccc(C(F)(F)F)cc2)oc1C(=O)Nc1nc(-c2ccccn2)cs1 [Example 50]
IC50 [2, 12]: 200 to 500 nM

SMILES: Cc1onc(-c2ccccc2)c1C(=O)Nc1nc(-c2ccccn2)cs1 [Example 27]
IC50 [1, 5]: 200 to 500 nM | IC50 [2, 6]: 200 to 500 nM

IC50 [1, 7]: 200 to 500 nM
SMILES: O=C(Nc1nc(-c2ccccn2)cs1)c1ccc(=O)n(Cc2ccccc2Cl)c1 [Example 5]
IC50 [2, 8]: 200 to 500 nM

IC50 [1, 9]: 200 to 500 nM
SMILES: Cc1onc(-c2ccccc2F)c1C(=O)Nc1nc(-c2ccccn2)cs1 [Example 7]
IC50 [2, 10]: 200 to 500 nM

IC50 [1, 3]: 500 to 1000 nM
SMILES: Cc1nn(-c2ccccc2Cl)c(C(F)F)c1C(=O)Nc1nc(-c2ccccn2)cs1 [Example 12]
IC50 [2, 4]: 200 to 500 nM

IC50 [1, 7]: 500 to 1000 nM
SMILES: O=C(Nc1nc(-c2ccccn2)cs1)c1cccnc1-c1ccc(F)cc1 [Example 12]
IC50 [2, 8]: 200 to 500 nM

IC50 [1, 9]: 200 to 500 nM
SMILES: O=C(Nc1nc(-c2ccccn2)cs1)c1oc(C2CC2)nc1-c1ccc(F)cc1 [Example 31]
IC50 [2, 10]: < 200 nM
